According to patent US20240175819A1, “DIAGNOSTIC TEST” (THE UNIVERSITY OF WARWICK, priority 2022, published 2024):

System: E. coli
Assay: Hydrogel biosensors with encapsulated antibiotic spiked with E. coli; inhibition of bacterial growth by antibiotic release (FIG. 6)
Type: cell-based
Settings: antibiotic encapsulated within crosslinked hydrogel network, photographs
Excerpt: FIG. 6 is a series of photographs of biosensors each comprising a different antibiotic wherein bacterial growth is inhibited as a result of antibiotic release from the hydrogel network;
Referring now to FIG. 6, there is shown photographs of three biosensors 6A, 6B, 6C each comprising a different antibiotic encapsulated within the crosslinked hydrogel network. Biosensor 6A comprises the antibiotic chloramphenicol, biosensor 6B comprises the antibiotic kanamycin, and biosensor 6C comprises the antibiotic ampicillin. The biosensors 6A, 6B, 6C were spiked with E. coli. In each case, it is shown that there is antibacterial activity in the area surrounding the spiked portion of hydrogel. Therefore, in these cases, E. coli. is shown to be susceptible to the antibiotics encapsulated within the biosensors 6A, 6B, 6C.

CC1(C)S[C@@H]2[C@H](NC(=O)[C@H](N)c3ccccc3)C(=O)N2[C@H]1C(=O)O [ampicillin]
susceptibility of E. coli to the antibiotic encapsulated within the biosensor (antibacterial activity in the area surrounding the spiked portion of hydrogel): susceptible

O=C(N[C@H](CO)[C@H](O)c1ccc([N+](=O)[O-])cc1)C(Cl)Cl [chloramphenicol]
susceptibility of E. coli to the antibiotic encapsulated within the biosensor (antibacterial activity in the area surrounding the spiked portion of hydrogel): susceptible
